# Results reported in paper PMC6934184, “Selective DNA-PKcs inhibition extends the therapeutic index of localized radiotherapy and chemotherapy” (The Journal of Clinical Investigation, 2019).
# Target: T1, KIT T670E (Homo sapiens, UniProt P10721, T670E)
# T1 construct: purchased Thermo Fisher Scientific (Life Technologies) SelectScreen
# Assay: SelectScreen LanthaScreen
# Format: binding
# Settings: read-out: % displacement
# Outline: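 SelectScreen broad panel; activity (Z'LYTE, Adapta) plus binding formats. ATP: Km app for CSF1R Z'LYTE; 10 for CAMK1 Adapta. Readout = % per kinase.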
# T1 sequence (P10721 26-976 T670E): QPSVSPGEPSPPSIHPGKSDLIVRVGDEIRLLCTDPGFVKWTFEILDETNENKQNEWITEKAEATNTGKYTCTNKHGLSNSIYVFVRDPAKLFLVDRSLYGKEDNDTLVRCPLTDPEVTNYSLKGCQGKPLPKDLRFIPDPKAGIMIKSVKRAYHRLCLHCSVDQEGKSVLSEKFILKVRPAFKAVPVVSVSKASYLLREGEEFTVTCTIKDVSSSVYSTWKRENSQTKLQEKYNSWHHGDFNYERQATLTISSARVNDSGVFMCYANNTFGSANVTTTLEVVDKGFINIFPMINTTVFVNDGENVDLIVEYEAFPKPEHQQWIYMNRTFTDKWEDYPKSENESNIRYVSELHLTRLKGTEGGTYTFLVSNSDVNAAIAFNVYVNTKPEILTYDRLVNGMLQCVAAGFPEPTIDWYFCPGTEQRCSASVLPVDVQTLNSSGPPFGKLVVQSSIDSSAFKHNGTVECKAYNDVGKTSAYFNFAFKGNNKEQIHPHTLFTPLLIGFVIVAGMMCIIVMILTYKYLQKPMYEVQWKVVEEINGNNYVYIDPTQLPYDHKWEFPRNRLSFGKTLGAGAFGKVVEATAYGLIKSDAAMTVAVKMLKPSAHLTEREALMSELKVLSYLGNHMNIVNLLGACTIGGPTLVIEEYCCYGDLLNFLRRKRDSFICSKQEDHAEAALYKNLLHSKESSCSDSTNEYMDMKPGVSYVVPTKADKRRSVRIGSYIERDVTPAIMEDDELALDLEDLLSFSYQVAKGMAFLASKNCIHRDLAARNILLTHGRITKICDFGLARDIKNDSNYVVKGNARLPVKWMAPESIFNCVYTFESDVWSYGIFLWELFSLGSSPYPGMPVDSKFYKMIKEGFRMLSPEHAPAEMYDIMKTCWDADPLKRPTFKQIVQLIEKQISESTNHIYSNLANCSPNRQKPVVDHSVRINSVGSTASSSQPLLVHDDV
compound,measurement,value
CN(C(=O)CN1CCOCC1)c1ccc2sc3c(-c4cccc5c(=O)cc(N6CC7CCC(C6)O7)oc45)cccc3c2c1 [NU5455],inhibition at 1 µM,-2.8%
